Assay results as given in US12285012B2, “Compositions comprising pyridine carboxylate herbicides with acetolactate synthase (ALS) inhibitor herbicides” (Corteva Agriscience LLC, priority 2018, dated 2025).

How the values were obtained:
Assay in all cases: Greenhouse postemergence herbicidal effect
Format in all cases: in vivo
[1] = test system: broadleaf signalgrass (BRAPP, Brachiaria platyphylla); conditions: Compound A 10 g/ha
Procedure, shortened: (§1)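 Visual rating, 0 (no injury) to 100% (complete kill), taken 20–22 d after treatment relative to solvent-sprayed controls. Pyridine carboxylate (g ae/ha) combined with ALS herbicide (g ai/ha), applied by track sprayer at 187 L/ha with 1.25% v/v oil adjuvant and cloquintocet-mexyl safener.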

[2] = test system: poinsettia (EPHHL, Euphorbia heterophylla)
Procedure, shortened: as §1

[3] = test system: annual ryegrass (LOLMG=Lolium multiflorum subsp. gaudini); conditions: 10 g/ha
Procedure, shortened: as §1

[4] = test system: blackgrass (ALOMY, Alopecurus myosuroides); conditions: Compound A 10 g/ha; safener mefenpyr-diethyl
Procedure, shortened: (§2)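 Plants at second or third true leaf stage, greenhouse-grown (~14 h photoperiod, about 23/22° C), sprayed at 187 L/ha with pyridine carboxylate herbicide (g ae/ha; with cloquintocet-mexyl safener unless noted) alone or plus ALS herbicide (g ai/ha) in 1.25% v/v oil adjuvant. Visual injury, 0 to 100% versus solvent-blank controls, after 20-22 d.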

[5] = test system: giant foxtail (SETFA, Setaria faberi)
Procedure, shortened: as §2

[6] = test system: grain sorghum (SORVU, Sorghum vulgare); conditions: Compound A 10 g/ha
Procedure, shortened: as §2

[7] = test system: nutsedge (CYPES, Cyperus esculentus)
Procedure, shortened: as §2

[8] = test system: wild oat (AVEFA, Avena fatua)
Procedure, shortened: as §2

[9] = Compound A 10 g/ha, safener mefenpyr-diethyl

Q: For `N#CCOC(=O)c1nc(-c2ccc3cc[nH]c3c2F)c(F)c(N)c1Cl` [Compound A, cyanomethyl 4-amino-3-chloro-5-fluoro-6-(7-fluoro-1H-indol-6-yl)pyridine-2-carboxylate], which “% visual injury Obs” value [1] is on record?
A: The value was 68%.

Q: What about the “% visual injury, Obs” value ([2]; 10 g/ha) of the same molecule?
A: Its value is 83%.

Q: And the “% visual injury” value ([2]; Compound A 10 g/ha)?
A: Its value is 97%.

Q: And the “% visual injury, Obs” value [3]?
A: The value was 3%.

Q: And the “% visual injury, Obs” value [4]?
A: Its value is 13%.

Q: What about the “ALOMY % visual injury Obs” value [4] of the same molecule?
A: Its value is 13%.

Q: And the “% visual injury, Obs” value ([5]; 10 g/ha)?
A: Its value is 0%.

Q: And the “% visual injury, Obs” value [5, 9]?
A: Its value is 80%.

Q: What about the “SETFA % visual injury Obs” value [5, 9] of the same molecule?
A: The value was 80%.

Q: And the “% visual injury” value [6]?
A: Its value is 0%.

Q: And the “% visual injury, Obs” value ([6]; safener mefenpyr-diethyl)?
A: Its value is 10%.

Q: And the “SORVU % visual injury Obs” value ([6]; safener mefenpyr-diethyl)?
A: Its value is 10%.

Q: What about the “% visual injury, Obs” value ([7]; 10 g/ha) of the same molecule?
A: The value was 45%.

Q: What about the “% visual injury” value ([7]; Compound A 10 g/ha) of the same molecule?
A: The value was 8%.

Q: What about the “% visual injury, Obs” value [7, 9] of the same molecule?
A: Its value is 28%.

Q: What about the “CYPES % visual injury Obs” value [7, 9] of the same molecule?
A: Its value is 28%.

Q: What about the “% visual injury, Obs” value ([8]; 10 g/ha) of the same molecule?
A: The value was 0%.

Q: What about the “% visual injury, Obs” value [8, 9] of the same molecule?
A: Its value is 0%.

Q: And the “AVEFA % visual injury Obs” value [8, 9]?
A: Its value is 0%.
